# Experimental data: US20250332178A1, “METHODS OF TREATING MYCOBACTERIAL INFECTIONS USING TETRACYCLINE COMPOUNDS” (priority 2018, published 2025)
# Legend:
# Mycobacterium abscessus = assay: MIC by broth microdilution in CAMHB, clinical isolates; type: cell-based
# Experimental: (§1) A total of 24 clinical isolates of Mycobacterium abscessus, 22 clinical isolates of Mycobacterium chelonae and 20 clinical isolates of Mycobacterium fortuitum were tested in the study. The study also used the antibiotics tigecycline, doxycycline and amikacin for comparison purposes. […] Amikacin was dissolved in DMSO prior to freezing at −20° C. For susceptibility testing, stock solutions of antibiotic compounds were serially diluted in 50 μL of cation adjusted Mueller-Hinton broth (CAMHB) in polystryrene 96-well round-bottom microtiter plates. To each well, 50 μL of the appropriate mycobacterial cell suspension was added to yield a final concentration of about 1×10^5 CFU/mL. The inoculum used for each isolate was measured by titration in saline with Tween 80 and plating on MH agar. The Mycobacterium abscessus and Mycobacterium fortuitum titer plates were incubated at 37° C. in ambient air for 3-4 days and 5-7 days, respectively. The Mycobacterium chelonae titer plates were incubated at 30° C. in ambient air for 3-5 days. Each isolate was tested at least in duplicate. The MIC was defined as the lowest concentration of antimicrobial agent yielding no visible turbidity.
# Mycobacterium fortuitum = assay: as above; type: cell-based
# Experimental: as §1
# Mycobacterium chelonae = assay: as above; type: cell-based
# Experimental: as §1
# M. smegmatis group = assay: MIC (CLSI broth dilution), RGM isolates; type: cell-based
# M. mucogenium group = assay: MIC (CLSI broth dilution), RGM isolates; type: cell-based
# M. fortuitum group = assay: MIC (CLSI broth dilution), RGM isolates; type: cell-based
# M. immunogenum group = assay: MIC (CLSI broth dilution), RGM isolates; type: cell-based; settings: M. immunogenum
# M. abscessus complex = assay: MIC (CLSI broth dilution), RGM isolates; type: cell-based
# M. chelonae = assay: MIC (CLSI broth dilution), RGM isolates; type: cell-based
# [1] = tested on: rapid-growing mycobacteria (RGM) isolates; assay: MIC (CLSI broth dilution), all RGM isolates; type: cell-based, nontuberculous mycobacteria; settings: all 50 RGM isolates
# [2] = 24 clinical isolates (tigecycline: subset N=14)
structure (smiles),measurement,setting,value
"NCC[C@H](O)C(=O)N[C@@H]1C[C@H](N)[C@@H](O[C@H]2O[C@H](CN)[C@@H](O)[C@H](O)[C@H]2O)[C@H](O)[C@H]1O[C@H]1O[C@H](CO)[C@@H](O)[C@H](N)[C@H]1O [Amikacin, amikacin]",MIC50,Mycobacterium abscessus; [2],2 µg/mL
same,MIC90,Mycobacterium abscessus; [2],8 µg/mL
same,MIC,"Mycobacterium abscessus; isolate No. 1, BB2",8 µg/mL
same,MIC,"Mycobacterium abscessus; isolate No. 2, BB4",8 µg/mL
same,MIC,"Mycobacterium abscessus; isolate No. 3, 5922",2 µg/mL
same,MIC,"Mycobacterium abscessus; isolate No. 4, BB3",2 µg/mL
same,MIC,"Mycobacterium abscessus; isolate No. 5, BB6",4 µg/mL
same,MIC,"Mycobacterium abscessus; isolate No. 6, 5908",2 µg/mL
same,MIC,"Mycobacterium abscessus; isolate No. 7, BB7",0.5 µg/mL
same,MIC,"Mycobacterium abscessus; isolate No. 8, 6031",0.5 µg/mL
same,MIC,"Mycobacterium abscessus; isolate No. 9, 5785",1 µg/mL
same,MIC,"Mycobacterium abscessus; isolate No. 10, BB8",2 µg/mL
same,MIC,"Mycobacterium abscessus; isolate No. 11, 6111",2 µg/mL
same,MIC,"Mycobacterium abscessus; isolate No. 12, 6005",4 µg/mL
same,MIC,"Mycobacterium abscessus; isolate No. 13, 5605",2 µg/mL
same,MIC,"Mycobacterium abscessus; isolate No. 14, 5931",0.5 µg/mL
same,MIC,"Mycobacterium abscessus; isolate No. 15, BB1",2 µg/mL
same,MIC,"Mycobacterium abscessus; isolate No. 16, BB5",8 µg/mL
same,MIC,"Mycobacterium abscessus; isolate No. 17, 5812",4 µg/mL
same,MIC,"Mycobacterium abscessus; isolate No. 18, 5901",2 µg/mL
same,MIC,"Mycobacterium abscessus; isolate No. 19, 5960",1 µg/mL
same,MIC,"Mycobacterium abscessus; isolate No. 20, 6142",4 µg/mL
same,MIC,"Mycobacterium abscessus; isolate No. 21, 5922",2 µg/mL
same,MIC,"Mycobacterium abscessus; isolate No. 22, LT 949",8 µg/mL
same,MIC,"Mycobacterium abscessus; isolate No. 23, 6025",8 µg/mL
same,MIC,"Mycobacterium abscessus; isolate No. 24, 6153",8 µg/mL
same,MIC50,Mycobacterium fortuitum; 20 clinical isolates,0.5 µg/mL
same,MIC90,Mycobacterium fortuitum; 20 clinical isolates,4 µg/mL
same,MIC,"Mycobacterium fortuitum; isolate No. 1, 3349",8 µg/mL
same,MIC,"Mycobacterium fortuitum; isolate No. 2, 3499",0.25 µg/mL
same,MIC,"Mycobacterium fortuitum; isolate No. 3, 2797",2 µg/mL
same,MIC,"Mycobacterium fortuitum; isolate No. 4, 32",1 µg/mL
same,MIC,"Mycobacterium fortuitum; isolate No. 5, 33",2 µg/mL
same,MIC,"Mycobacterium fortuitum; isolate No. 6, 3489",1 µg/mL
same,MIC,"Mycobacterium fortuitum; isolate No. 7, 3491",1 µg/mL
same,MIC,"Mycobacterium fortuitum; isolate No. 8, 54",0.5 µg/mL
same,MIC,"Mycobacterium fortuitum; isolate No. 9, 38",0.5 µg/mL
same,MIC,"Mycobacterium fortuitum; isolate No. 10, 36",1 µg/mL
same,MIC,"Mycobacterium fortuitum; isolate No. 11, 3480",0.5 µg/mL
same,MIC,"Mycobacterium fortuitum; isolate No. 12, 3126",0.5 µg/mL
same,MIC,"Mycobacterium fortuitum; isolate No. 13, 3579",1 µg/mL
same,MIC,"Mycobacterium fortuitum; isolate No. 14, 7484",16 µg/mL
same,MIC,"Mycobacterium fortuitum; isolate No. 15, 3488",0.5 µg/mL
same,MIC,"Mycobacterium fortuitum; isolate No. 16, 3276",0.5 µg/mL
same,MIC,"Mycobacterium fortuitum; isolate No. 17, 3442",0.5 µg/mL
same,MIC,"Mycobacterium fortuitum; isolate No. 18, 3316",0.125 µg/mL
same,MIC,"Mycobacterium fortuitum; isolate No. 19, 3490",0.5 µg/mL
same,MIC,"Mycobacterium fortuitum; isolate No. 20, 2491",4 µg/mL
same,MIC50,Mycobacterium chelonae; 22 clinical isolates,4 µg/mL
same,MIC90,Mycobacterium chelonae; 22 clinical isolates,8 µg/mL
same,MIC,"Mycobacterium chelonae; isolate No. 1, MC 7323",4 µg/mL
same,MIC,"Mycobacterium chelonae; isolate No. 2, MC 7534",8 µg/mL
same,MIC,"Mycobacterium chelonae; isolate No. 3, MC 7368",16 µg/mL
same,MIC,"Mycobacterium chelonae; isolate No. 4, MC 7514",8 µg/mL
same,MIC,"Mycobacterium chelonae; isolate No. 5, MC 7584",4 µg/mL
same,MIC,"Mycobacterium chelonae; isolate No. 6, MC 7192",4 µg/mL
same,MIC,"Mycobacterium chelonae; isolate No. 7, MC 7466",2 µg/mL
same,MIC,"Mycobacterium chelonae; isolate No. 8, MC 7533",4 µg/mL
same,MIC,"Mycobacterium chelonae; isolate No. 9, MC 7579",4 µg/mL
same,MIC,"Mycobacterium chelonae; isolate No. 10, MC 7614",8 µg/mL
same,MIC,"Mycobacterium chelonae; isolate No. 11, MC 7414",4 µg/mL
same,MIC,"Mycobacterium chelonae; isolate No. 12, MC 7313",2 µg/mL
same,MIC,"Mycobacterium chelonae; isolate No. 13, MC 7281",8 µg/mL
same,MIC,"Mycobacterium chelonae; isolate No. 14, MC 7328",8 µg/mL
same,MIC,"Mycobacterium chelonae; isolate No. 15, MC 7294",8 µg/mL
same,MIC,"Mycobacterium chelonae; isolate No. 16, MC 14-S-03",4 µg/mL
same,MIC,"Mycobacterium chelonae; isolate No. 17, MC 14-S-04",4 µg/mL
same,MIC,"Mycobacterium chelonae; isolate No. 18, MC 14-S-05",8 µg/mL
same,MIC,"Mycobacterium chelonae; isolate No. 19, MC 14-S-06",8 µg/mL
same,MIC,"Mycobacterium chelonae; isolate No. 20, MC 14-S-07",4 µg/mL
same,MIC,"Mycobacterium chelonae; isolate No. 21, MC 35757",2 µg/mL
same,MIC,"Mycobacterium chelonae; isolate No. 22, MC 7302",4 µg/mL
same,MIC,"M. smegmatis group; isolate 49, M. smegmatis group, M. goodii",≤2 µg/mL
same,MIC,"M. smegmatis group; isolate 50, M. smegmatis group, M. wolinskyi",≤2 µg/mL
same,MIC,"M. mucogenium group; isolate 39, M. mucogenicum group, M. mucogenicum",≤2 µg/mL
same,MIC,"M. mucogenium group; isolate 40, M. mucogenicum group, M. mucogenicum",≤2 µg/mL
same,MIC,"M. mucogenium group; isolate 41, M. mucogenicum group, M. mucogenicum",≤2 µg/mL
same,MIC,"M. mucogenium group; isolate 42, M. mucogenicum group, M. mucogenicum",≤2 µg/mL
same,MIC,"M. mucogenium group; isolate 43, M. mucogenicum group, M. phocaicum",≤2 µg/mL
same,MIC,"M. mucogenium group; isolate 44, M. mucogenicum group, M. phocaicum",≤2 µg/mL
same,MIC,"M. mucogenium group; isolate 45, M. mucogenicum group, M. phocaicum",≤2 µg/mL
same,MIC,"M. mucogenium group; isolate 46, M. mucogenicum group, M. phocaicum",≤2 µg/mL
same,MIC,"M. mucogenium group; isolate 47, M. mucogenicum group, M. phocaicum",≤2 µg/mL
same,MIC,"M. mucogenium group; isolate 48, M. mucogenicum group, M. phocaicum",≤2 µg/mL
same,MIC,"M. fortuitum group; isolate 23, M. fortuitum group, M. fortuitum",≤2 µg/mL
same,MIC,"M. fortuitum group; isolate 24, M. fortuitum group, M. fortuitum",≤2 µg/mL
same,MIC,"M. fortuitum group; isolate 25, M. fortuitum group, M. fortuitum",≤2 µg/mL
same,MIC,"M. fortuitum group; isolate 26, M. fortuitum group, M. porcinum",≤2 µg/mL
same,MIC,"M. fortuitum group; isolate 27, M. fortuitum group, M. porcinum",≤2 µg/mL
same,MIC,"M. fortuitum group; isolate 28, M. fortuitum group, M. porcinum/M. boenickei",≤2 µg/mL
same,MIC,"M. fortuitum group; isolate 29, M. fortuitum group, M. porcinum/M. boenickei",≤2 µg/mL
same,MIC,"M. fortuitum group; isolate 30, M. fortuitum group, M. porcinum/M. boenickei",≤2 µg/mL
same,MIC,"M. fortuitum group; isolate 31, M. fortuitum group, M. senegalense",≤2 µg/mL
same,MIC,"M. fortuitum group; isolate 32, M. fortuitum group, M. senegalense",≤2 µg/mL
same,MIC,"M. fortuitum group; isolate 33, M. fortuitum group, M. senegalense",≤2 µg/mL
same,MIC,"M. fortuitum group; isolate 34, M. fortuitum group, M. senegalense",≤2 µg/mL
same,MIC,"M. immunogenum group; isolate 35, M. immunogenum group",16 µg/mL
same,MIC,"M. immunogenum group; isolate 36, M. immunogenum group",4 µg/mL
same,MIC,"M. immunogenum group; isolate 37, M. immunogenum group",8 µg/mL
same,MIC,"M. immunogenum group; isolate 38, M. immunogenum group",8 µg/mL
same,MIC,"M. abscessus complex; isolate 1, M. abscessus complex, erm gene type MAB30",8 µg/mL
same,MIC,"M. abscessus complex; isolate 2, M. abscessus complex, erm gene type MAB30",4 µg/mL
same,MIC,"M. abscessus complex; isolate 3, M. abscessus complex, erm gene type MAB30",16 µg/mL
same,MIC,"M. abscessus complex; isolate 4, M. abscessus complex, erm gene type massiliense",8 µg/mL
same,MIC,"M. abscessus complex; isolate 5, M. abscessus complex, erm gene type massiliense/subsp. abs hybrid",32 µg/mL
same,MIC,"M. abscessus complex; isolate 6, M. abscessus complex, erm gene type Type 1 abscessus",8 µg/mL
same,MIC,"M. abscessus complex; isolate 7, M. abscessus complex, erm gene type Type 1 abscessus",8 µg/mL
same,MIC,"M. abscessus complex; isolate 8, M. abscessus complex, erm gene type Type 1 abscessus",8 µg/mL
same,MIC,"M. abscessus complex; isolate 9, M. abscessus complex, erm gene type Type 1 abscessus",>64 µg/mL
same,MIC,"M. abscessus complex; isolate 10, M. abscessus complex, erm gene type Type 1 abscessus",16 µg/mL
same,MIC,"M. abscessus complex; isolate 11, M. abscessus complex, erm gene type Type 6 abscessus",16 µg/mL
same,MIC,"M. abscessus complex; isolate 12, M. abscessus complex, erm gene type Type 6 abscessus",8 µg/mL
same,MIC,"M. abscessus complex; isolate 13, M. abscessus complex, erm gene type Type 6 abscessus",4 µg/mL
same,MIC,"M. abscessus complex; isolate 14, M. abscessus complex, erm gene type Type 6 abscessus",16 µg/mL
same,MIC,"M. abscessus complex; isolate 15, M. abscessus complex, erm gene type Type 7 abscessus",8 µg/mL
same,MIC,"M. abscessus complex; isolate 16, M. abscessus complex, erm gene type Type 7 abscessus",16 µg/mL
same,MIC,"M. abscessus complex; isolate 17, M. abscessus complex, erm gene type Type 8 abscessus",4 µg/mL
same,MIC,"M. chelonae; isolate 18, M. chelonae",8 µg/mL
same,MIC,"M. chelonae; isolate 19, M. chelonae",16 µg/mL
same,MIC,"M. chelonae; isolate 20, M. chelonae",16 µg/mL
same,MIC,"M. chelonae; isolate 21, M. chelonae",16 µg/mL
same,MIC,"M. chelonae; isolate 22, M. chelonae",16 µg/mL
same,MIC50,[1],4 µg/mL
same,MIC90,[1],16 µg/mL
